Four compounds from patent US20080234252A1, “Compounds Useful in Therapy” (Pfizer Inc, priority 2005, published 2008) can be followed below.

T1 sequence (P37288 whole entry): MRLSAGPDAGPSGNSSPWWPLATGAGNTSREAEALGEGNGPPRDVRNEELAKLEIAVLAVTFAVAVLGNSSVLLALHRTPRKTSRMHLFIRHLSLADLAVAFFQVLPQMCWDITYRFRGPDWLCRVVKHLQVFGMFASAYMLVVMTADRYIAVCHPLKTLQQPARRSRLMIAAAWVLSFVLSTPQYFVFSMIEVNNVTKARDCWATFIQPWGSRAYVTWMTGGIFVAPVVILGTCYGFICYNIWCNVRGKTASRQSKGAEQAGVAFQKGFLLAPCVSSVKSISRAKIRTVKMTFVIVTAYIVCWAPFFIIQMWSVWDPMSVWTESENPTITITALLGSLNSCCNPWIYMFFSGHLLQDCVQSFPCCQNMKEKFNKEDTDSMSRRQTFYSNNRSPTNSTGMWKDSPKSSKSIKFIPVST

The assay concerns the target T1, human V1A receptor (Homo sapiens, UniProt P37288).
T1 construct: expressed in transfected cells; host or cells: CHO cells (CHO-hV1A line provided by Marc Thibonnier, Case Western Reserve University)
Kind of assay: V1A filter binding assay ([3H]-AVP binding to CHO-hV1A membranes). As to the method:
1.0 V1A Filter Binding Assay
Receptor binding assays were performed on cellular membranes prepared from CHO cells stably expressing the human V1A receptor, (CHO-hV1A). The CHO-hV1A cell line was kindly provided under a licensing agreement by Marc Thibonnier, Dept. of Medicine, Case Western Reserve University School of Medicine, Cleveland, Ohio. CHO-hV1A cells were routinely maintained at 37° C. in humidified atmosphere with 5% CO2 in DMEM/Hams F12 nutrient mix supplemented with 10% fetal bovine serum, 2 mM L-glutamine, 15 mM HEPES and 400 μg/ml G418. For bulk production of cell pellets, adherent CHO-hV1A cells were grown to confluency of 90-100% in 850 cm^2 roller bottles containing a medium of DMEM/Hams F12 Nutrient Mix supplemented with 10% fetal bovine serum, 2 mM L-glutamine and 15 mM HEPES. Confluent CHO-hV1A cells were washed with phosphate-buffered saline (PBS), harvested into ice cold PBS and centrifuged at 1,000 rpm. Cell pellets were stored at −80° C. until use. Cell pellets were thawed on ice and homogenised in membrane preparation buffer consisting of 50 mM Tris-HCl, pH 7.4, 5 mM MgCl2 and supplemented with a protease inhibitor cocktail, (Roche). The cell homogenate was centrifuged at 1000 rpm, 10 min, 4° C. and the supernatant was removed and stored on ice. The remaining pellet was homogenised and centrifuged as before. The supernatants were pooled and centrifuged at 25,000×g for 30 min at 4° C. […] Protein concentration was determined using Bradford reagent and BSA as a standard.
Protein linearity followed by saturation binding studies were performed on each new batch of membrane. […] Saturation binding studies were then performed using various concentrations of [^3H]-arginine vasopressin, [^3H]-AVP (0.05 nM-100 nM) and the Kd and Bmax determined.
Compounds were tested for their effects on [^3H]-AVP binding to CHO-hV1A membranes, (^3H-AVP; specific activity 65.5 Ci/mmol; NEN Life Sciences). […] The plates were sealed and counted on a TopCount Microplate Scintillation Counter (Packard Instruments). Non-specific binding (NSB) was determined using 1 μM unlabelled d(CH2)5Tyr(Me)AVP ([β-mercapto-β,β-cyclopentamethylenepropionyl, 0-Me-Tyr^2,Arg^8]-vasopressin ) (βMCPVP), (Sigma). The radioligand binding data was analysed using a four parameter logistic equation with the min forced to 0%. […] Specific binding was calculated by subtracting the mean NSB cpm from the mean Total cpm. For test compounds the amount of ligand bound to the receptor was expressed as % bound=(sample cpm−mean NSB cpm)/specific binding cpm×100. […] The inhibitory dissociation constant (Ki) was calculated using the Cheng-Prusoff equation: Ki=IC50/(1+[L]/Kd) where [L] is the concentration of ligand present in the well and Kd is the dissociation constant of the radioligand obtained from Scatchard plot analysis. […]
As usually defined, the Ki is a dissociation constant, usually derived from enzyme kinetics or from competition with a known ligand. Lower therefore signals a stronger hold on the target. On to `COCc1nnc(N2Cc3ccccc3C2)n1-c1ccc(Cl)cc1` [Example 1, 2-[4-(4-Chlorophenyl)-5-(methoxymethyl)-4H-1,2,4-triazol-3-yl]isoindoline], for which the Ki was 9.69 nM. This counts as single-digit nanomolar.

Turning to `Cc1nnc(N2CCC3(CC2)OCc2ccccc23)n1-c1ccc(Cl)cc1` [Example 6, 1′-[4-(4-Chlorophenyl)-5-methyl-4H-1,2,4-triazol-3-yl]-3H-spiro[2-benzofuran-1,4′-piperidine]], the Ki was 6.58 nM.

In the case of `Clc1ccc(-n2c(Cn3nccn3)nnc2N2Cc3ccccc3C2)cc1` [Example 8, 2-[4-(4-Chlorophenyl)-5-(2H-1,2,3-triazol-2-ylmethyl)-4H-1,2,4-triazol-3-yl]isoindoline], the inhibition constant Ki was 0.88 nM.

In turn, `OCc1ccc2c(c1)CN(c1nnc(Cn3nccn3)n1-c1ccc(Cl)cc1)C2` [Example 10, {2-[4-(4-Chlorophenyl)-5-(2H-1,2,3-triazol-2-ylmethyl)-4H-1,2,4-triazol-3-yl]-2,3-dihydro-1H-isoindol-5-yl}methanol] yielded an inhibitory constant (Ki) of 0.47 nM.
